{"source": "paper PMC9288506", "about": "“Compounds activating VCP D1 ATPase enhance both autophagic and proteasomal neurotoxic protein clearance” (Nature Communications, 2022)", "key": {"[1]": {"target": "T1, VCP (p97, Valosin-containing protein) (Homo sapiens, UniProt P55072)", "T1 construct": "Full-length VCP (6xHis-tag)", "test": "SPR (also DARTS, LiP-MS, competition pulldown, ATPase activation)", "type": "binding"}, "[2]": {"target": "ABL1 (Homo sapiens, UniProt P00519)", "test": "biochemical", "design": "Thermo Fisher in vitro kinase panel, per cent inhibition of kinase activity at 10 uM", "experimental": "(§1) Kinase profiling of SMER28 and analogs SMER28 and analogs were tested at 10 µM in a panel of 123 kinases at ThermoFisher Scientific. Follow-up of selected kinases for SMER28 and analogs was also performed at ThermoFisher Scientific. Data are shown in Supplementary Data 2 and 3. […] An inhibition of PIK3C could induce autophagy, mediated by signaling through the AKT/mTOR axis[45]."}, "[3]": {"target": "ALK (Homo sapiens, UniProt Q9UM73)", "test": "biochemical", "design": "Thermo Fisher in vitro kinase panel, per cent inhibition of kinase activity at 10 uM", "experimental": "as §1"}, "[4]": {"target": "AURKB (Aurora B) (Homo sapiens, UniProt Q96GD4)", "test": "biochemical", "design": "Thermo Fisher in vitro kinase panel, per cent inhibition of kinase activity at 10 uM", "experimental": "as §1"}, "[5]": {"target": "AURKC (Aurora C) (Homo sapiens, UniProt Q9UQB9)", "sequence (Q9UQB9 whole entry)": "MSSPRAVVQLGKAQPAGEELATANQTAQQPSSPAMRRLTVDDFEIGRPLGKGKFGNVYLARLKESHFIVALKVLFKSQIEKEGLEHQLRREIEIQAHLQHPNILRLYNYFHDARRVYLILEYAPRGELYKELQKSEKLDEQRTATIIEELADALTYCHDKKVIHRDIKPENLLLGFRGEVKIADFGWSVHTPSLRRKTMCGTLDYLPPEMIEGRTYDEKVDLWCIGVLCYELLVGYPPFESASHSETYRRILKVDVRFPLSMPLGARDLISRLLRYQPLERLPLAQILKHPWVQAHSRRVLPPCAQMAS", "test": "biochemical", "design": "Thermo Fisher in vitro kinase panel, per cent inhibition of kinase activity at 10 uM", "experimental": "as §1"}, "[6]": {"target": "CDK1/cyclin B (Homo sapiens, UniProt P06493)", "test": "biochemical", "design": "Thermo Fisher in vitro kinase panel, per cent inhibition of kinase activity at 10 uM", "experimental": "as §1"}, "[7]": {"target": "CSF1R (FMS) (Homo sapiens, UniProt P07333)", "sequence (P07333 whole entry)": "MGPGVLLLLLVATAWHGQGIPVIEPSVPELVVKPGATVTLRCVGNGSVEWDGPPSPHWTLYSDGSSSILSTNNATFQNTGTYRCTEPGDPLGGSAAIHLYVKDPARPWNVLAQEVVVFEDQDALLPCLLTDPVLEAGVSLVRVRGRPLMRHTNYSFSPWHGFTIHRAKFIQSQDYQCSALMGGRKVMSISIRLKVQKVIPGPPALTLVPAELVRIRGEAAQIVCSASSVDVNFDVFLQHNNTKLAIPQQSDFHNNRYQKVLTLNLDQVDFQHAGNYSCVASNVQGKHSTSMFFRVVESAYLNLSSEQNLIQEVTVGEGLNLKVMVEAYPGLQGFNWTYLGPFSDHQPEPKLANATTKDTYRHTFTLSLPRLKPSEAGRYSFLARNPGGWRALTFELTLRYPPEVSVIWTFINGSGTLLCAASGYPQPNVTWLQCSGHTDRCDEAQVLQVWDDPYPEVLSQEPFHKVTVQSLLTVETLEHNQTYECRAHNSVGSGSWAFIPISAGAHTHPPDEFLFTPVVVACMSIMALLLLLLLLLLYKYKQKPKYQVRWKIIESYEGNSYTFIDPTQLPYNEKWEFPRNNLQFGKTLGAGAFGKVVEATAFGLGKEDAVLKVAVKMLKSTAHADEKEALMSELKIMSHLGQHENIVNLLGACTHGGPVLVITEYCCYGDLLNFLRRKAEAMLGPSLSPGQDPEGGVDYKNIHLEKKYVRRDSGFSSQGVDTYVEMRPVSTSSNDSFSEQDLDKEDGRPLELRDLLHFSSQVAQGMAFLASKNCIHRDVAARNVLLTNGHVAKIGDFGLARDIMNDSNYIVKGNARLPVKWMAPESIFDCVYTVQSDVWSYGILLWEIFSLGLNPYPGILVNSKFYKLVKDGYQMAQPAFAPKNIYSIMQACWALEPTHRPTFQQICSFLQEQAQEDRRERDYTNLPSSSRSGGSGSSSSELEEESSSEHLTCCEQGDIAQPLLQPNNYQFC", "test": "biochemical", "design": "Thermo Fisher in vitro kinase panel, per cent inhibition of kinase activity at 10 uM", "experimental": "as §1"}, "[8]": {"target": "CSNK1G1 (CK1 gamma 1) (Homo sapiens, UniProt Q9HCP0)", "test": "biochemical", "design": "Thermo Fisher in vitro kinase panel, per cent inhibition of kinase activity at 10 uM", "experimental": "as §1"}, "[9]": {"target": "FGFR2 (Homo sapiens, UniProt P21802)", "test": "biochemical", "design": "Thermo Fisher in vitro kinase panel, per cent inhibition of kinase activity at 10 uM", "experimental": "as §1"}, "[10]": {"target": "GSK3A (GSK3 alpha) (Homo sapiens, UniProt P49840)", "sequence (P49840 whole entry)": "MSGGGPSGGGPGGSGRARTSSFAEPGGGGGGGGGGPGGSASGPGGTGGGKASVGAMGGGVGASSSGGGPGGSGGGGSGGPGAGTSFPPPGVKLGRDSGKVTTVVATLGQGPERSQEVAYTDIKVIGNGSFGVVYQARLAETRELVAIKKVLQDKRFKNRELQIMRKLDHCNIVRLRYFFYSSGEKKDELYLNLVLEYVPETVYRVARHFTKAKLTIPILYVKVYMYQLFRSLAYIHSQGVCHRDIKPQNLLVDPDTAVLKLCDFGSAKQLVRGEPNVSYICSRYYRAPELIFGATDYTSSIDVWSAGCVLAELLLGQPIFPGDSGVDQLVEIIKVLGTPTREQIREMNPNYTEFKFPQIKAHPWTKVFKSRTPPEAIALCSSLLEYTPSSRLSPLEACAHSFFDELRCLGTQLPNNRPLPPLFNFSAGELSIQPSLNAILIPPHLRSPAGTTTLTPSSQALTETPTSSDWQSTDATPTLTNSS", "test": "biochemical", "design": "Thermo Fisher in vitro kinase panel, per cent inhibition of kinase activity at 10 uM", "experimental": "as §1"}, "[11]": {"target": "JAK2 (Homo sapiens, UniProt O60674)", "test": "biochemical", "design": "Thermo Fisher in vitro kinase panel, per cent inhibition of kinase activity at 10 uM", "experimental": "as §1"}, "[12]": {"target": "KIT (Homo sapiens, UniProt P10721)", "test": "biochemical", "design": "Thermo Fisher in vitro kinase panel, per cent inhibition of kinase activity at 10 uM", "experimental": "as §1"}, "[13]": {"target": "LCK (Homo sapiens, UniProt P06239)", "test": "biochemical", "design": "Thermo Fisher in vitro kinase panel, per cent inhibition of kinase activity at 10 uM", "experimental": "as §1"}, "[14]": {"target": "MAPKAPK2 (Homo sapiens, UniProt P49137)", "test": "biochemical", "design": "Thermo Fisher in vitro kinase panel, per cent inhibition of kinase activity at 10 uM", "experimental": "as §1"}, "[15]": {"target": "MAPKAPK5 (PRAK) (Homo sapiens, UniProt Q8IW41)", "sequence (Q8IW41 whole entry)": "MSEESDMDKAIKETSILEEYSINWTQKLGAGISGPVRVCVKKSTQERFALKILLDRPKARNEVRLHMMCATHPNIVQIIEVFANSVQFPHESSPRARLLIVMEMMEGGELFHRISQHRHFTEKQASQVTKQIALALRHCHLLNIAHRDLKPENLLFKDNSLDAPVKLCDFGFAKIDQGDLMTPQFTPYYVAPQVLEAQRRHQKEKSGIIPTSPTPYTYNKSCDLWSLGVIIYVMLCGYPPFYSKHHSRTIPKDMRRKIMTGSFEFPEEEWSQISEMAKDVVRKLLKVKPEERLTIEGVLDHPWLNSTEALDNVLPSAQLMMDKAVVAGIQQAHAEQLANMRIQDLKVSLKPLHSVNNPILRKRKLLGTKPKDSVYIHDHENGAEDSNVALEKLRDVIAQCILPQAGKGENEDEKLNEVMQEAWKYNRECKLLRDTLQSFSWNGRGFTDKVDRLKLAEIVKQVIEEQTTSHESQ", "test": "biochemical", "design": "Thermo Fisher in vitro kinase panel, per cent inhibition of kinase activity at 10 uM", "experimental": "as §1"}, "[16]": {"target": "MARK2 (Homo sapiens, UniProt Q7KZI7)", "sequence (Q7KZI7 whole entry)": "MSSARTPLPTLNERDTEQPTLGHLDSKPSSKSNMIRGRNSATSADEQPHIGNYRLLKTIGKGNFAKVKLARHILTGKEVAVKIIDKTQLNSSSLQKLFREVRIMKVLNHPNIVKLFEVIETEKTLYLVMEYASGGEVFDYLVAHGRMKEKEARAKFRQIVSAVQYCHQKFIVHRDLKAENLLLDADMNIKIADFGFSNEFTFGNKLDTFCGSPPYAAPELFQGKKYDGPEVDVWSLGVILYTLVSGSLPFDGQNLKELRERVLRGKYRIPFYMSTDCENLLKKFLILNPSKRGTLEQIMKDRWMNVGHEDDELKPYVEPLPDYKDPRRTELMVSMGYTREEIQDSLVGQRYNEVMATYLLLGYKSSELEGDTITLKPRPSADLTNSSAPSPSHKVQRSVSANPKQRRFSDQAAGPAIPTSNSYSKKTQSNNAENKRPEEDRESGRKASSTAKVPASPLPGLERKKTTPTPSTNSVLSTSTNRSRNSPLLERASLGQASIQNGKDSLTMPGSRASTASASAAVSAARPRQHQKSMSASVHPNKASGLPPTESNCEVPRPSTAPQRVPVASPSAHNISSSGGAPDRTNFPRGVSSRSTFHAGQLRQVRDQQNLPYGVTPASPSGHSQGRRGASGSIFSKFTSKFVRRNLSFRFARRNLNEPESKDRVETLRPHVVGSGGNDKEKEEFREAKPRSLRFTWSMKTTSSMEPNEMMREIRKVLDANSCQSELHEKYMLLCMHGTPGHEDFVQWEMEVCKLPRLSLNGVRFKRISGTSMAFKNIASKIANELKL", "test": "biochemical", "design": "Thermo Fisher in vitro kinase panel, per cent inhibition of kinase activity at 10 uM", "experimental": "as §1"}, "[17]": {"target": "MST1R (RON) (Homo sapiens, UniProt Q04912)", "sequence (Q04912 whole entry)": "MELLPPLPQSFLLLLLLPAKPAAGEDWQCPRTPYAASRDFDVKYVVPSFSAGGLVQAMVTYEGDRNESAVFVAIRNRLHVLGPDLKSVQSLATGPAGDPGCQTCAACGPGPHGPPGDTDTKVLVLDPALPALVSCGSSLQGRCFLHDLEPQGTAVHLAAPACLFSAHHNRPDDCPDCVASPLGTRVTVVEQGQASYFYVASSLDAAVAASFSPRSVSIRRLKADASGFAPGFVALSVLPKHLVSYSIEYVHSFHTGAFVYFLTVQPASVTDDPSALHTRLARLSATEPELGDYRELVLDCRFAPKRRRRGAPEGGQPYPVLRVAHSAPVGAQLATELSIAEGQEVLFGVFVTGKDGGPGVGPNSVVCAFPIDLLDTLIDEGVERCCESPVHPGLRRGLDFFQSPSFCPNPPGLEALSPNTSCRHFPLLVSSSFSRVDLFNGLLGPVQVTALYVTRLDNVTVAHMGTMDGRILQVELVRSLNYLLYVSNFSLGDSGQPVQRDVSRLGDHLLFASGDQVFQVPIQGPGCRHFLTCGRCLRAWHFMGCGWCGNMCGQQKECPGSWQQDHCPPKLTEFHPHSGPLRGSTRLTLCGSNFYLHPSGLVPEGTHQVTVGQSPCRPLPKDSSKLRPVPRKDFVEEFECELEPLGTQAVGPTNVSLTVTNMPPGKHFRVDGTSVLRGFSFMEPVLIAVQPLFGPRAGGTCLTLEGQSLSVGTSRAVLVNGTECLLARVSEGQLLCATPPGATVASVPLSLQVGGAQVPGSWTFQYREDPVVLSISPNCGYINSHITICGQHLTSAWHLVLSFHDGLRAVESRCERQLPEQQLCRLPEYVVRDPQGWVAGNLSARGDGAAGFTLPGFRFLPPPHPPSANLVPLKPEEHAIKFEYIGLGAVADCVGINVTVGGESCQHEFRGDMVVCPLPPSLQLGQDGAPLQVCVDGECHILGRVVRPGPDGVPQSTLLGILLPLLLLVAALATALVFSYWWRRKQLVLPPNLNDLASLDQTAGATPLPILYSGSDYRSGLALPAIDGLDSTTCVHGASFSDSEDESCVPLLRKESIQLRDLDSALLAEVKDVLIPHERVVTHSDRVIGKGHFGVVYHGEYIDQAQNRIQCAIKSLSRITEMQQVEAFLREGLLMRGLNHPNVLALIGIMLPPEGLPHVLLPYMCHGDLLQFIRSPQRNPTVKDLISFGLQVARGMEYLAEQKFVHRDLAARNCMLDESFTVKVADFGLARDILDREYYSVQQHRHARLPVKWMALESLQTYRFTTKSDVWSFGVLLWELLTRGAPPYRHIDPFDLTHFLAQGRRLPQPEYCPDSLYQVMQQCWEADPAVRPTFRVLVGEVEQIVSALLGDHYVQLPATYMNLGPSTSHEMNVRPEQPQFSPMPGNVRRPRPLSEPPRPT", "test": "biochemical", "design": "Thermo Fisher in vitro kinase panel, per cent inhibition of kinase activity at 10 uM", "experimental": "as §1"}, "[18]": {"target": "PIK3C2A (PI3K-C2 alpha) (Homo sapiens, UniProt O00443)", "test": "biochemical", "design": "Thermo Fisher in vitro kinase panel, per cent inhibition of kinase activity at 10 uM", "experimental": "as §1"}, "[19]": {"target": "PIK3CA/PIK3R1 (p110 alpha/p85 alpha) (Homo sapiens, UniProt P42336)", "test": "biochemical", "design": "Thermo Fisher in vitro kinase panel, per cent inhibition of kinase activity at 10 uM", "experimental": "as §1"}, "[20]": {"target": "RET V804M (Homo sapiens, UniProt P07949, V804M)", "test": "biochemical", "design": "Thermo Fisher in vitro kinase panel, per cent inhibition of kinase activity at 10 uM", "experimental": "as §1"}, "[21]": {"target": "SRC (Homo sapiens, UniProt P12931)", "test": "biochemical", "design": "Thermo Fisher in vitro kinase panel, per cent inhibition of kinase activity at 10 uM", "experimental": "as §1"}, "[22]": {"target": "TGFBR1 (ALK5) (Homo sapiens, UniProt P36897)", "test": "biochemical", "design": "Thermo Fisher in vitro kinase panel, per cent inhibition of kinase activity at 10 uM", "experimental": "as §1"}, "[23]": {"target": "YES1 (Homo sapiens, UniProt P07947)", "sequence (P07947 whole entry)": "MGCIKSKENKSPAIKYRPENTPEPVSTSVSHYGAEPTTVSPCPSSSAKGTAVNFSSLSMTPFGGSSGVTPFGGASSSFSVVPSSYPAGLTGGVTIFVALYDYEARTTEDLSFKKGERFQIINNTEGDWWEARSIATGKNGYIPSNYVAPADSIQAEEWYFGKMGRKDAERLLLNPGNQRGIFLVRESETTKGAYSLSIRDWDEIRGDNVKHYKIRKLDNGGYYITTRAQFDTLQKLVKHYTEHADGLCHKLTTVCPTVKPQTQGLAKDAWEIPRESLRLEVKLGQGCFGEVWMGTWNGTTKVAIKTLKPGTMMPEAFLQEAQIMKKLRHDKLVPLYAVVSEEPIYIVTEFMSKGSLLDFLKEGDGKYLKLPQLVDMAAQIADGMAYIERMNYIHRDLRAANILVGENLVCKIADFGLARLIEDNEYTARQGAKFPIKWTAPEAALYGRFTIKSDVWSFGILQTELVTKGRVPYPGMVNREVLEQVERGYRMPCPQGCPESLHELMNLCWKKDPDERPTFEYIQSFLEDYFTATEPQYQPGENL", "test": "biochemical", "design": "Thermo Fisher in vitro kinase panel, per cent inhibition of kinase activity at 10 uM", "experimental": "as §1"}}, "data": [{"smiles": "C=CCNc1ncnc2ccc(Br)cc12", "note": "[SMER28]", "values": [{"measurement": "Kd", "setting": "[1]", "value": "~750", "unit": "nM"}, {"measurement": "inhibition at 10 µM", "setting": "[2]", "value": 11, "unit": "%"}, {"measurement": "inhibition at 10 µM", "setting": "[3]", "value": 25, "unit": "%"}, {"measurement": "inhibition at 10 µM", "setting": "[4]", "value": 18, "unit": "%"}, {"measurement": "inhibition at 10 µM", "setting": "[5]", "value": -6, "unit": "%"}, {"measurement": "inhibition at 10 µM", "setting": "[6]", "value": 22, "unit": "%"}, {"measurement": "inhibition at 10 µM", "setting": "[7]", "value": 39, "unit": "%"}, {"measurement": "inhibition at 10 µM", "setting": "[8]", "value": 31, "unit": "%"}, {"measurement": "inhibition at 10 µM", "setting": "[9]", "value": 19, "unit": "%"}, {"measurement": "inhibition at 10 µM", "setting": "[10]", "value": 23, "unit": "%"}, {"measurement": "inhibition at 10 µM", "setting": "[11]", "value": 3, "unit": "%"}, {"measurement": "inhibition at 10 µM", "setting": "[12]", "value": 25, "unit": "%"}, {"measurement": "inhibition at 10 µM", "setting": "[13]", "value": 19, "unit": "%"}, {"measurement": "inhibition at 10 µM", "setting": "[14]", "value": 0, "unit": "%"}, {"measurement": "inhibition at 10 µM", "setting": "[15]", "value": 8, "unit": "%"}, {"measurement": "inhibition at 10 µM", "setting": "[16]", "value": 9, "unit": "%"}, {"measurement": "inhibition at 10 µM", "setting": "[17]", "value": -4, "unit": "%"}, {"measurement": "inhibition at 10 µM", "setting": "[18]", "value": 22, "unit": "%"}, {"measurement": "inhibition at 10 µM", "setting": "[19]", "value": 78, "unit": "%"}, {"measurement": "inhibition at 10 µM", "setting": "[20]", "value": 38, "unit": "%"}, {"measurement": "inhibition at 10 µM", "setting": "[21]", "value": 2, "unit": "%"}, {"measurement": "inhibition at 10 µM", "setting": "[22]", "value": 6, "unit": "%"}, {"measurement": "inhibition at 10 µM", "setting": "[23]", "value": 13, "unit": "%"}]}]}
